# Tests used:
# [1] = degradation time in vivo of ω-oxidation-blocked fatty acid analogue; details: triple bond at the methyl end blocks ω-oxidation
# Description: ω-oxidation is believed to be the main pathway for degradation of the fatty acid analogues as described with a block in the X position. Fatty acid analogues in which R′ was changed by introducing a triple bond at the methyl end of the fatty acid analogue block ω-oxidation. […] Thus, this modification finds use in embodiments of the technology to potentiate the effects of the β-oxidizable fa acid analogues by further slowing down their breakdown.
# [2] = rats, 12 weeks; cited from earlier work
# acyl-CoA oxidase = details: substance alone; cited from earlier work
# cancer cell lines = details: many cancer cell lines; cited from earlier work
# PPARα = target: T1, PPARα (Homo sapiens, UniProt Q07869); details: cited from earlier work
# T1 sequence (Q07869 1-468): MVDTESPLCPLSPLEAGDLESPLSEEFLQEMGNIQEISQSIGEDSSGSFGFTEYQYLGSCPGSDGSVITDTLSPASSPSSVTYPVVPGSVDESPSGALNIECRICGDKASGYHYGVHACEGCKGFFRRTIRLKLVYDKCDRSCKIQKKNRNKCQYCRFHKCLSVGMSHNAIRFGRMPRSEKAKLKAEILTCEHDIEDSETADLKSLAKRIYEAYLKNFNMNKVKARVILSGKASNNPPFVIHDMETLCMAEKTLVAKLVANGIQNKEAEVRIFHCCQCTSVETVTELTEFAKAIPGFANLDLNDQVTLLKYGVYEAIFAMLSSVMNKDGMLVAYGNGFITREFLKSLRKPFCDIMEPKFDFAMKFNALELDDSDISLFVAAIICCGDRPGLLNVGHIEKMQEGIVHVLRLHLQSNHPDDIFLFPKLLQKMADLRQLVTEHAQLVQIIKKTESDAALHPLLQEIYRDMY
# [3] = moderate doses, within days of treatment; cited from earlier work
# [4] = TTA alone; cited from earlier work
# PPARγ = target: T2, PPARγ (Homo sapiens, UniProt P37231); details: cited from earlier work
# T2 sequence (P37231 1-505): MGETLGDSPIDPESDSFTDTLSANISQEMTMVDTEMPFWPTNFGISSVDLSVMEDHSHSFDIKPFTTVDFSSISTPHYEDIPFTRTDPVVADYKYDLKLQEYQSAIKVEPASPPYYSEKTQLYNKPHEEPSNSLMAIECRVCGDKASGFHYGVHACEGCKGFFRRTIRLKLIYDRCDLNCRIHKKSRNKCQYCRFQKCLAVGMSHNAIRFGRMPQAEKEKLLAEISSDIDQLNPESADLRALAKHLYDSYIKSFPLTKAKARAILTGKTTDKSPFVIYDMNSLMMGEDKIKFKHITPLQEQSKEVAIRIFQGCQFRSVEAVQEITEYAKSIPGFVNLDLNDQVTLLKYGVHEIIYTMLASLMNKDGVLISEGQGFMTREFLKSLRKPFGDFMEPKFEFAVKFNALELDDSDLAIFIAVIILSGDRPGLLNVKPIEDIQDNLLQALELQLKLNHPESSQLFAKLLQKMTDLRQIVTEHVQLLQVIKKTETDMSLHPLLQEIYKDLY
# [5] = test system: peripheral mononuclear cells; details: cited from earlier work
# interleukin-2 = details: cited from earlier work
# PPARβ = target: T3, PPARβ (Homo sapiens, UniProt Q03181); details: cited from earlier work
# T3 sequence (Q03181 1-441): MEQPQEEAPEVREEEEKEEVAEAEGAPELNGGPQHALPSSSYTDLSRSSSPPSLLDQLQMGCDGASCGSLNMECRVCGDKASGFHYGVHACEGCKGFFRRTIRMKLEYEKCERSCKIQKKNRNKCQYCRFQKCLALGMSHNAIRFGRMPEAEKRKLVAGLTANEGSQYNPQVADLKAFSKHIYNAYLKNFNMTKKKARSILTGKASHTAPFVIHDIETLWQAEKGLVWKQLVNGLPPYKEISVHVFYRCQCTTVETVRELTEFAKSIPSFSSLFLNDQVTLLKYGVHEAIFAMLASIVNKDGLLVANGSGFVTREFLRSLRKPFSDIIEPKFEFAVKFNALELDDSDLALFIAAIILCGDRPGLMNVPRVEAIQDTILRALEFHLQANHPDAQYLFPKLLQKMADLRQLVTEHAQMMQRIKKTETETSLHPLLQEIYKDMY
# [6] = test system: mitochondrial β-oxidation in the liver; details: sulfur in 3, 5 or 7 position relative to carboxyl end; cited from earlier work
compound,measurement,setting,value
CC#CCCCCCCCCCCCSCC [3-thia-15-heptadecyne],degradation time in vivo,[1],substantially increased degradation time
"CCCCCCCCCCCCCCSCC(=O)O [TTA, tetradecylthioacetic acid]",hepatic and plasma content of monounsaturated fatty acids (mainly oleic acid),[2],nearly doubled
same,polyunsaturated fatty acids (mainly linoleic acid and DHA),[2],decreased
same,effect on acyl-CoA oxidase activity,acyl-CoA oxidase,large increase
same,proliferation of cancer cell lines,cancer cell lines,reduce proliferation
same,PPARα ligand,PPARα,potent ligands
same,plasma cholesterol and triacylglycerol levels,[3],decreases
same,effect on plasma triacylglycerol level,[4],reduces plasma triacylglycerol level
same,PPARγ activation,PPARγ,activate
same,PHA stimulated proliferation of peripheral mononuclear cells,[5],suppressing
same,release of interleukin-2,interleukin-2,depressing the release
same,PPARβ activation,PPARβ,activate
CCCCCCCCCCCCCCCC(=O)O [palmitic acid],mitochondrial β-oxidation activity,[6],0.47
